Measurements taken from patent publication US10669269B2, “Substituted N-(1H-indazol-4-yl)imidazo[1,2-a]pyridine-3-carboxamide compounds as type III receptor tyrosine kinase inhibitors” (ARRAY BIOPHARMA INC., priority 2010, dated 2020).
Where a name gives a salt, the structure may show the parent alone.

What was measured:
cFMS = molecular target: T1, cFMS (Homo sapiens, UniProt P07333); assay: cFMS Cell-Based Assay (Example C); conditions: averaged IC50; phospho-cFMS in THP-1 cells stimulated with 250 ng/mL recombinant human MCSF; read-out: cFMS Cell ELISA IC50
T1 construct: THP-1 cells (human acute monocytic leukemia cell line) were serum-starved for 4 hours; endogenous in cells; host or cells: THP-1 cells (human acute monocytic leukemia cell line)
T1 sequence (P07333 20-972): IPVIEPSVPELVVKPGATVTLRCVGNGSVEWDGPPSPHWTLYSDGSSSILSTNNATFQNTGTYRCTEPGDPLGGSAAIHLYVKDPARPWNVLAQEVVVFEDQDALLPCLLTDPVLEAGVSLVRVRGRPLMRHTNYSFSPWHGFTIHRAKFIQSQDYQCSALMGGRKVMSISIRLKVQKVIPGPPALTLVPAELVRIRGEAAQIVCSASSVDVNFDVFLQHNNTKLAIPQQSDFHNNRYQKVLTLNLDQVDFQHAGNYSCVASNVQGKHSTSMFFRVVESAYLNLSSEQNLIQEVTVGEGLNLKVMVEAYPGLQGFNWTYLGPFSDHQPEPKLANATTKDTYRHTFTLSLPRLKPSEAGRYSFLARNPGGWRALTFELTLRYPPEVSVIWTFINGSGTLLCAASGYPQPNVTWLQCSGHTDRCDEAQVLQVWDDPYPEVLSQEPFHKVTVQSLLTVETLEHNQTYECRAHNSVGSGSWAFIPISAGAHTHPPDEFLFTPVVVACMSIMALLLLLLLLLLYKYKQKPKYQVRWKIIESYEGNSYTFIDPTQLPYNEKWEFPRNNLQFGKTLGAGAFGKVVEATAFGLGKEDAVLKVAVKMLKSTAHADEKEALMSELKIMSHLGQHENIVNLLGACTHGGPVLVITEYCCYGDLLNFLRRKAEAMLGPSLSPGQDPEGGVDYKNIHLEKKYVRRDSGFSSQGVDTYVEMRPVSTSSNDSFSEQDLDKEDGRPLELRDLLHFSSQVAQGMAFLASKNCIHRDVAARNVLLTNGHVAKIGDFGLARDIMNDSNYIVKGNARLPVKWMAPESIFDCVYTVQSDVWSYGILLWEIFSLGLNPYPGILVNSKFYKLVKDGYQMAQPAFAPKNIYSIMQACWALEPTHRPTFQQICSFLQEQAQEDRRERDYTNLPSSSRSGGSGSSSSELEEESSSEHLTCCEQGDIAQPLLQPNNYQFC
Description: The ability of compounds of Formula I to inhibit cFMS activation in cells was determined by the following assay. THP-1 cells (human acute monocytic leukemia cell line) were serum-starved for 4 hours prior to treatment with compounds of Formula I for 1 hour. The concentration of compounds of Formula I was varied over a 9-point, 3-fold dilution series with 5,000 nM typically being the highest dose. Cell culture and treatment were carried out in a humidified 37° C., 5% CO2 incubator. Treated cells were stimulated with 250 ng/mL recombinant human MCSF for 1 minute to induce activation of cFMS. Cells were lysed in a manner which preserves phosphoproteins, and the lysate was analyzed by ELISA (R&D Systems, Human Phospho-M-CSF R DuoSet IC DYC3268), in which total cFMS protein in the lysate is captured and phosphotyrosine residues of cFMS are detected. A standard curve, made using purified phospho-M-CSF R protein, was used to quantify phospho-c-FMS in compound-treated wells. A standard 4-parameter logistic model was fit to the inhibitor dose response curves, with the IC50 being defined as the concentration of inhibitor giving 50 percent of control (POC).

PDGFR beta = molecular target: T2, PDGFR beta (Homo sapiens, UniProt P09619); assay: Phospho PDGFR LICOR Cell Assay (Example B); format: cell-based; conditions: averaged IC50; PDGFR beta phosphorylation in HS27 human fibroblast cell line, PDGF-BB stimulation 10 minutes, normalized to total ERK
T2 construct: endogenous in cells; host or cells: HS27 human fibroblast cell line
T2 sequence (P09619 33-1106): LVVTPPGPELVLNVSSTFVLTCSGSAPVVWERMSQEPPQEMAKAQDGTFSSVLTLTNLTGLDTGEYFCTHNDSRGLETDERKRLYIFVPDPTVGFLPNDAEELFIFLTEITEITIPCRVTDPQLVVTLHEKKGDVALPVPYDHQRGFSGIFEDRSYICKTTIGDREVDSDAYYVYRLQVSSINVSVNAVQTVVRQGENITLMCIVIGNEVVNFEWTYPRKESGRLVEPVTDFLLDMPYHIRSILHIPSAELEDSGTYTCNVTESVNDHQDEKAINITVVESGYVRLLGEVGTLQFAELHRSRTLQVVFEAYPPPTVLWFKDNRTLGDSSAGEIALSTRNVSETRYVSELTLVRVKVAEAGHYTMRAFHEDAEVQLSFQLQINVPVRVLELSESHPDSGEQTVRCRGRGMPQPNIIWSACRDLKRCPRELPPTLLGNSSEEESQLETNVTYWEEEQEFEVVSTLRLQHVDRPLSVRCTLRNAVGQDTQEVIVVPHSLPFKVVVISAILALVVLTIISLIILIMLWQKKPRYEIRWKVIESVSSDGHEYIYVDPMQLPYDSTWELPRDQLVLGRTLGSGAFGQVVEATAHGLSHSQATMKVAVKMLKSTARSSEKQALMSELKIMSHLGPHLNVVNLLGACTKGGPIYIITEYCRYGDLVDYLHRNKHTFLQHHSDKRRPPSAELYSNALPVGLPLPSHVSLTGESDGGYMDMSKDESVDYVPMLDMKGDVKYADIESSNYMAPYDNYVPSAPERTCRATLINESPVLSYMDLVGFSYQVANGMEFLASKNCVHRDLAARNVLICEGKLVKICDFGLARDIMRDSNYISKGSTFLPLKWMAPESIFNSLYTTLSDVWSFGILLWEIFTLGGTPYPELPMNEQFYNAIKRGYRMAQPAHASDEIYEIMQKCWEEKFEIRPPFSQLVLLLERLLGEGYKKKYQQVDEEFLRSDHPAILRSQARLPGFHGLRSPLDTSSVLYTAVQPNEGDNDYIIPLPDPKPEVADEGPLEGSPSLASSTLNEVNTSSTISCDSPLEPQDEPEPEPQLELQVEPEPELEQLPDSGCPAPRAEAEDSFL
Description: Compounds were screened for inhibition of PDGFR beta phosphorylation in the HS27 human fibroblast cell line. Cells were seeded into a 96 well tissue culture plate, then incubated overnight in a 37° C./5% CO2 incubator. The following day, cells were treated for one hour with test compound dilutions. After stimulation with PDGF-BB ligand for 10 minutes, cells were washed with PBS and fixed in 3.7% formaldehyde in PBS for 10 minutes. This was followed by washing in PBS/0.2% Triton X-100 and permeabilizing in 100% MeOH for 10 minutes. Cells were incubated in blocking buffer for 1 hour. Antibodies to phosphorylated PDGFRβ and total ERK were added to the cells and incubated for 3 hours. After washing with PBS/0.2% Triton X-100, the cells were incubated with fluorescently-labeled secondary antibodies for an additional hour. Cells were then washed with PBS and analyzed for fluorescence at both wavelengths using the Odyssey Infrared Imaging System (LI-COR Biosciences). Phosphorylated PDGFR signal was normalized to total ERK signal. A standard 4-parameter logistic model was fit to the inhibitor dose response curves, with the IC50 being defined as the concentration of inhibitor giving 50 percent of control (POC).

c-KIT = molecular target: T3, c-KIT (Homo sapiens, UniProt P10721); assay: c-KIT Cell-Based Assay (Example D); conditions: averaged IC50; phospho-c-KIT in M-07e cells stimulated with 150 ng/ml recombinant human SCF; read-out: cKIT Cell ELISA IC50
T3 construct: M-07e cells (human acute megakaryoblastic leukemia cell line) were serum-starved for 4 hours; endogenous in cells; host or cells: M-07e cells (human acute megakaryoblastic leukemia cell line)
T3 sequence (P10721 26-976): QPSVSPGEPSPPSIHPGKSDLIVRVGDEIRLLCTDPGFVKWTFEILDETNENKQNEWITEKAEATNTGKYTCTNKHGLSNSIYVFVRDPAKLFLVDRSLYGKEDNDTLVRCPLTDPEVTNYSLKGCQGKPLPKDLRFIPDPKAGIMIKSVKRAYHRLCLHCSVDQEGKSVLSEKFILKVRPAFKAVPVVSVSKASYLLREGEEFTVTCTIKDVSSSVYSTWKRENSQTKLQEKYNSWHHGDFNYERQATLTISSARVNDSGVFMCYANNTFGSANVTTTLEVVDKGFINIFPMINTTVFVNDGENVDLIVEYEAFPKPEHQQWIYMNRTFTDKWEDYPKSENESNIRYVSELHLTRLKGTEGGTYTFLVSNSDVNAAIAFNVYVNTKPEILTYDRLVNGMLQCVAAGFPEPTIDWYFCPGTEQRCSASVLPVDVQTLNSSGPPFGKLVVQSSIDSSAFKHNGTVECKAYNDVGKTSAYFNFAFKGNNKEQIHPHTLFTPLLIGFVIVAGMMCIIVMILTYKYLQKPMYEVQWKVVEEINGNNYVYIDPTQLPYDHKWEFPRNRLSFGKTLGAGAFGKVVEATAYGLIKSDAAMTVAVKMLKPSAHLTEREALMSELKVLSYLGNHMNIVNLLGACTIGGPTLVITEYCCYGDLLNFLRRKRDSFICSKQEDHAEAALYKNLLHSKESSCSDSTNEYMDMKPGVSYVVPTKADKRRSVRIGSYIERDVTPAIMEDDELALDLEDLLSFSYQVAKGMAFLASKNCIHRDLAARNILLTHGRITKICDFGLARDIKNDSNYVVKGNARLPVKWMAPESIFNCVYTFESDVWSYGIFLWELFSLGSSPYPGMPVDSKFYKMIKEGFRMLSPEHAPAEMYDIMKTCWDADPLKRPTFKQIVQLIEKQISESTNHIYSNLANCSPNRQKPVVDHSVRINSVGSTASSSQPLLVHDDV
Description: The ability of compounds of Formula I to inhibit c-KIT activation in cells was determined by the following assay. M-07e cells (human acute megakaryoblastic leukemia cell line) were serum-starved for 4 hours prior to treatment with compounds of Formula I for 1 hour. The concentration of compounds of Formula I was varied over a 9-point, 3-fold dilution series with 5,000 nM typically being the highest dose. Cell culture and treatment were carried out in a humidified 37° C., 5% CO2 incubator. Treated cells were stimulated with 150 ng/ml recombinant human SCF for 4 minutes to induce activation of c-KIT. Cells were lysed in a manner which preserves phosphoproteins, and the lysate was analyzed by ELISA (R&D Systems, Human Phospho-SCF R DuoSet IC DYC3527), in which total c-KIT protein in the lysate is captured and phosphotyrosine residues of c-Kit are detected. A standard curve, made using purified phospho-SCF R protein, was used to quantify phospho-c-KIT in compound-treated wells. A standard 4-parameter logistic model was fit to the inhibitor dose response curves, with the IC50 being defined as the concentration of inhibitor giving 50 percent of control (POC).

IC50 (cFMS)	IC50 (PDGFR beta)	IC50 (c-KIT)	Structure (SMILES)
21.9 nM	915 nM	6870 nM	Cc1cccc(Cn2nc(C)c3c(NC(=O)c4cnc5cc(OCC(O)CO)ccn45)cccc32)n1 (stereo not drawn) [Example 58, 7-(2,3-dihydroxypropoxy)-N-(3-methyl-1-((6-methylpyridin-2-yl)methyl)-1H-indazol-4-yl)imidazo[1,2-a]pyridine-3-carboxamide]
19.4 nM	19.3 nM	1490 nM	Cc1cccc(Cn2nc(C)c3c(NC(=O)c4cnc5cc(OCCN6CCOCC6)ccn45)cccc32)n1 [Example 59, N-(3-methyl-1-((6-methylpyridin-2-yl)methyl)-1H-indazol-4-yl)-7-(2-morpholinoethoxy)imidazo[1,2-a]pyridine-3-carboxamide]
35.6 nM	5000 nM	4560 nM	Cc1cccc(Cn2nc(C)c3c(NC(=O)c4cnc5cc(OCCN(C)C)ccn45)cccc32)n1 [Example 60, 7-(2-(dimethylamino)ethoxy)-N-(3-methyl-1-((6-methylpyridin-2-yl)methyl)-1H-indazol-4-yl)imidazo[1,2-a]pyridine-3-carboxamide]
58.1 nM	222 nM	527 nM	Cc1cccc(Cn2nc(C)c3c(NC(=O)c4cnc5ccccn45)cccc32)n1 [Example 61, N-(3-methyl-1-((6-methylpyridin-2-yl)methyl)-1H-indazol-4-yl)imidazo[1,2-a]pyridine-3-carboxamide]
9.7 nM	94.1 nM	1010 nM	Cc1cccc(Cn2nc(C)c3c(NC(=O)c4cnc5cc(OCCN6CCNCC6)ccn45)cccc32)n1 [Example 64, N-(3-methyl-1-((6-methylpyridin-2-yl)methyl)-1H-indazol-4-yl)-7-(2-(piperazin-1-yl)ethoxy)imidazo[1,2-a]pyridine-3-carboxamide]
8.5 nM	212 nM	647 nM	Cc1cccc(Cn2nc(C)c3c(NC(=O)c4cnc5cc(-c6ccc(=O)n(C)c6)ccn45)cccc32)n1 [Example 65, N-(3-methyl-1-((6-methylpyridin-2-yl)methyl)-1H-indazol-4-yl)-7-(1-methyl-6-oxo-1,6-dihydropyridin-3-yl)imidazo[1,2-a]pyridine-3-carboxamide]
5 nM	23.2 nM	76.9 nM	Cc1cccc(Cn2nc(C)c3c(NC(=O)c4cnc5cc(-c6cnn(C)c6)ccn45)cccc32)n1 [Example 68, N-(3-methyl-1-((6-methylpyridin-2-yl)methyl)-1H-indazol-4-yl)-7-(1-methyl-1H-pyrazol-4-yl)imidazo[1,2-a]pyridine-3-carboxamide]
24.2 nM	3160 nM	7010 nM	Cc1cccc(Cn2nc(C)c3c(NC(=O)c4cnc5cc(CCN(C)C)ccn45)cccc32)n1 [Example 72, 7-(2-(dimethylamino)ethyl)-N-(3-methyl-1-((6-methylpyridin-2-yl)methyl)-1H-indazol-4-yl)imidazo[1,2-a]pyridine-3-carboxamide]
17.3 nM	3430 nM	4070 nM	Cc1cccc(Cn2nc(C)c3c(NC(=O)c4cnc5cc(CCN6CCN(C)CC6)ccn45)cccc32)n1 [Example 78, N-(3-methyl-1-((6-methylpyridin-2-yl)methyl)-1H-indazol-4-yl)-7-(2-(4-methylpiperazin-1-yl)ethyl)imidazo[1,2-a]pyridine-3-carboxamide]
4.9 nM	77.7 nM	372 nM	COc1cccc(Cn2nc(C)c3c(NC(=O)c4cnc5cc(OCCN6CCN(C)CC6)ccn45)cccc32)n1 [Example 87, N-(1-((6-methoxypyridin-2-yl)methyl)-3-methyl-1H-indazol-4-yl)-7-(2-(4-methylpiperazin-1-yl)ethoxy)imidazo[1,2-a]pyridine-3-carboxamide]
7.3 nM	845 nM	1050 nM	Cc1cccc(Cn2nc(C)c3c(NC(=O)c4cnc5cc(OCCN6CCN(C)CC6)ccn45)cccc32)n1 [Example 89, N-(3-methyl-1-((6-methylpyridin-2-yl)methyl)-1H-indazol-4-yl)-7-(2-(4-methylpiperazin-1-yl)ethoxy)imidazo[1,2-a]pyridine-3-carboxamide tetrahydrochloride]

Further lines, the compound ahead of its results:

Structure (SMILES)	IC50 (cFMS)	IC50 (PDGFR beta)	IC50 (c-KIT)
Cc1nn(Cc2cc(C)n(C(C)C)n2)c2cccc(NC(=O)c3cnc4cc(OCCN5CCN(C)CC5)ccn34)c12 [Example 67, N-(1-((1-isopropyl-5-methyl-1H-pyrazol-3-yl)methyl)-3-methyl-1H-indazol-4-yl)-7-(2-(4-methylpiperazin-1-yl)ethoxy)imidazo[1,2-a]pyridine-3-carboxamide]	10 nM	10.3 nM	60.6 nM
COCCOc1ccn2c(C(=O)Nc3cccc4c3c(C)nn4Cc3ccccc3)cnc2c1 [Example 80, N-(1-benzyl-3-methyl-1H-indazol-4-yl)-7-(2-methoxyethoxy)imidazo[1,2-a]pyridine-3-carboxamide]	8.2 nM	174 nM	5700 nM
Cc1ccc(Cn2nc(C)c3c(NC(=O)c4cnc5ccccn45)cccc32)cn1 [Example 81, N-(3-methyl-1-((6-methylpyridin-3-yl)methyl)-1H-indazol-4-yl)imidazo[1,2-a]pyridine-3-carboxamide]	136 nM	6440 nM	4440 nM
Cc1ccc(Cn2nc(C)c3c(NC(=O)c4cnc5cc(OCCN6CCN(C)CC6)ccn45)cccc32)cn1 [Example 85, N-(3-methyl-1-((6-methylpyridin-3-yl)methyl)-1H-indazol-4-yl)-7-(2-(4-methylpiperazin-1-yl)ethoxy)imidazo[1,2-a]pyridine-3-carboxamide]	10.4 nM	401 nM	303 nM
CCOc1cccc(Cn2nc(C)c3c(NC(=O)c4cnc5cc(OCCN6CCN(C)CC6)ccn45)cccc32)n1 [Example 86, N-(1-((6-ethoxypyridin-2-yl)methyl)-3-methyl-1H-indazol-4-yl)-7-(2-(4-methylpiperazin-1-yl)ethoxy)imidazo[1,2-a]pyridine-3-carboxamide]	7 nM	117 nM	314 nM
Cc1nc(Cn2nc(C)c3c(NC(=O)c4cnc5cc(OCCN6CCN(C)CC6)ccn45)cccc32)cs1 [Example 88, N-(3-methyl-1-((2-methylthiazol-4-yl)methyl)-1H-indazol-4-yl)-7-(2-(4-methylpiperazin-1-yl)ethoxy)imidazo[1,2-a]pyridine-3-carboxamide]	15.6 nM	180 nM	510 nM
O=C(Nc1cccc2c1cnn2Cc1ccccc1)c1cnc2cc(OCCN3CCOCC3)ccn12 [Example 90, N-(1-benzyl-1H-indazol-4-yl)-7-(2-morpholinoethoxy)imidazo[1,2-a]pyridine-3-carboxamide]	9.8 nM	5 nM	25.8 nM
COCCOc1ccn2c(C(=O)Nc3cccc4c3cnn4Cc3cccc(C(=O)OC)c3)cnc2c1 [Example 93, Methyl 3-((4-(7-(2-methoxyethoxy)imidazo[1,2-a]pyridine-3-carboxamido)-1H-indazol-1-yl)methyl)benzoate]	842 nM	6 nM	6.4 nM
